From patent publication US9505740B2, “Cyclic amine derivative and pharmaceutical use thereof” (Toray Industries, Inc., priority 2013, dated 2016)
Structures can show the parent of a compound that is named as a salt.

Columns and labels:
[1] = tested on: mouse partial sciatic nerve ligation model; test: Mouse partial sciatic nerve ligation model (Seltzer model), von Frey test; type: in vivo; conditions: oral administration; Example 8 10 mg/kg (Day 7), Example 38 0.1 to 10 mg/kg (Day 8), pregabalin 10 mg/kg; 1, 2 and 3 hours after administration; vs partial sciatic nerve ligation+distilled water, p<0.05
Excerpt: Using a partial sciatic nerve ligation model (Seltzer model) in mice by which neuropathic pain can be evaluated, the analgesic action of a cyclic amine derivative (I) or a prodrug thereof or a pharmacologically acceptable salt thereof was investigated.
As the cyclic amine derivative (I) or a pharmacologically acceptable salt thereof, the compounds of Example 2, 4, 6, 8, 10, 12, 13, 15, 18, 22, 25, 27, 29, 31, 33, 66, 68 or 70 was used for evaluation. As the prodrug of the cyclic amine derivative (I) or a pharmacologically acceptable salt thereof, the compound of Example 38 was used for evaluation. The compound of Example 38 is a hydrochloride of a prodrug obtained by esterifying the carboxyl group of the compound of Example 39 with an ethyl group.
The mouse partial sciatic nerve ligation model was prepared in accordance with the method of Seltzer et al. (Malmberg et al., Pain, vol. 76, p. 215-222, 1998). • Slc: ICR mice (5 weeks old, male; from Japan SLC, Inc.) or Crl: CD1 (ICR) mice (5 weeks old, male; from CHARLES RIVER LABORATORIES JAPAN, INC.) were anesthetized with sodium pentobarbital (70 mg/kg, intraperitoneal administration). The sciatic nerve at the femoral region of the right hind paw of each mouse was exposed and triply ligated tightly with silk suture of 8-0 (from NATSUME […]., LTD.) under a stereomicroscope so that only half thickness of the nerve was trapped in the ligature. A group of mice thus treated was designated as a partial sciatic nerve ligation group. A group of mice whose sciatic nerve was just exposed and not ligated was designated as a sham surgery group.
Evaluation of neuropathic pain (hereinafter referred to as von Frey test) was performed as follows. Mice were conditioned for at least two hours in an acrylic cage for measurement (from NATSUME […]. LTD.) placed on a wire net. […]

[2] = tested on: fibromyalgia syndrome model rats; test: Fibromyalgia syndrome model in rats (acidic saline), allodynia by von Frey filament; type: in vivo, rat; conditions: vs acidic saline-vehicle group
Excerpt: Using a fibromyalgia syndrome model in rats by which fibromyalgia syndrome can be evaluated, the analgesic action of a cyclic amine derivative (I) or a prodrug thereof or a pharmacologically acceptable salt thereof was investigated.
As the cyclic amine derivative (I) or a pharmacologically acceptable salt thereof, the compound of Example 13 was used for evaluation. As the prodrug of a cyclic amine derivative (I) or a pharmacologically acceptable salt thereof, the compound of Example 38 was used for evaluation. The compound of Example 38 is a hydrochloride of a prodrug obtained by esterifying the carboxyl group of the compound of Example 39 with an ethyl group.
To prepare a fibromyalgia syndrome model rat (Sluka et al., Journal of Pharmacology and Experimental Therapeutics, vol. 302, p. 1146-50, 2002; Nagakura et al., Pain, vol. 146, p. 26-33, 2009; Sluka et al., Pain, vol. 146, p. 3-4, 2009), which is generally employed widely in basic research for fibromyalgia syndrome, acidic saline (100 μL) adjusted to pH4.0 was intramuscularly injected to the gastrocnemius muscle of the right hind paw of Crl: CD(SD) rat (6 to 7 weeks old, male; from CHARLES RIVER LABORATORIES JAPAN, INC.) under continuous inhalation anesthesia with isoflurane, twice (once in each day of Day 1 and Day 6, wherein Day 1 was the date on which the acidic saline was initially administrated). The rats thus prepared were raised in a breeding room controlled at an indoor temperature of 21 to 25° C. and an indoor humidity of 40 to 70% under the conditions of voluntary intake of food and water. In the same manner, rats to which physiological saline in place of acidic saline was intramuscularly injected were raised. The rats thus raised and not afflicted with fibromyalgia syndrome (“physiological saline-vehicle” group in FIGS. 23 and 24) were also used in the experiment.
Day 7 after the initial administration of acidic saline, allodynia in each rat was measured. […] Note that, measurement of allodynia was performed by use of a von Frey filament (from North Coast Medical) in accordance with the method described in a known literature (Chaplan et al., Journal of Neuroscience Methods, vol. 53, p. 55-63, 1994). […]
The compound of Example 13 (3 and 10 mg/kg) was dissolved in physiological saline and then administered (intravenous administration) to fibromyalgia syndrome model rats through the tail vein (“acidic saline—the compound of Example 13” in FIG. 23). […] In thirty minutes after the intravenous administration, allodynia in individual rats was measured to evaluate an analgesic action. […]

[3] = tested on: mouse partial sciatic nerve ligation model; test: Mouse partial sciatic nerve ligation model (Seltzer model), von Frey test; type: in vivo; conditions: intravenous administration (tail vein), Day 7; Examples 2, 4: 0.1 to 10 mg/kg; 13: 0.01 to 1 mg/kg; 18, 22: 0.1 and 1 mg/kg; 25, 27, 29, 31, 33, 66, 68, 70: 0.1 mg/kg; pregabalin 1 or 3 mg/kg; vs physiological saline group
[4] = oral administration, 10 mg/kg, one hour and three hours after administration, p<0.05

| Structure (SMILES) | analgesic action, total score in the von Frey test [1] | allodynia, 50% response threshold (mean value of the right hind paw and the left hind paw) [2, 4] | allodynia, 50% response threshold (mean value of the right hind paw and the left hind paw) ([2]; intravenous administration, Example 13 3 and 10 mg/kg, pregabalin 10 mg/kg, 30 minutes after administration) | analgesic action, total score in the von Frey test [3] |
| --- | --- | --- | --- | --- |
| CCOC(=O)Cn1ccnc1CCC(=O)N1CCC(N(C)C)CC1 [Example 38, ethyl 2-(2-(3-(4-(dimethylamino)piperidin-1-yl)-3-oxopropyl)-1H-imidazol-1-yl)acetate hydrochloride] | statistically significant analgesic action | statistically significantly improved |  |  |
| CC(C)C[C@H](CN)CC(=O)O [pregabalin, reference compound] | statistically significant analgesic action | statistically significantly improved | statistically significantly improved | statistically significant analgesic action |
| Cn1ccnc1CCC(=O)N1CCC(N)CC1 [Example 8, 1-(4-aminopiperidin-1-yl)-3-(1-methyl-1H-imidazol-2-yl)propan-1-one hydrochloride] | statistically significant analgesic action |  |  |  |
